{"source": "patent US8716231B2", "about": "“Use of benzo-fused heterocycle sulfamide derivatives for the treatment of pain” (Janssen Pharmaceutica NV, priority 2005, dated 2014)", "key": {"[1]": {"tested_on": "formalin-induced inflammatory-mediated pain response (licking of injected hind-paw)", "test": "Mouse Formalin Assay (NINDS)", "format": "in vivo, mice", "procedure": "The mouse formalin test is an acute and chronic model for testing the ability of a test compound for the treatment of pain.\nIn the Mouse Formalin Test, 0.5% formalin was injected s.c. into the plantar region of the hind-paw of adult male mice to induce an inflammatory-mediated pain response. Pain was expressed as licking of the injected area in a bi-modal manner—acute and chronic phase. The acute phase occurred immediately and lasted approximately […] post-injection, representing direct stimulation of pain fibers. Licking behavior resumes approximately 10 mins later (˜20 min post injection) and lasted 10-15 min, representing the chronic phase hypothesized to be caused by the release of inflammatory mediators such as cytokines.\nActivity in the acute phase of the formalin test is an indicator of acute pain believed to correlate with peripheral pain pathways.\nCompound #8 was evaluated in the Mouse Formalin Test as described above. […] For the acute phase the decrease was 52% from control (p<0.01), while for the chronic phase the decrease was 43% from control (p<0.01)."}, "[2]": {"tested_on": "Taxol®-induced degeneration of sciatic nerve and right hind paw", "test": "Taxol Induced Peripheral Neuropathy Model (pilot), histopathology", "format": "in vivo, Sprague-Dawley rats", "settings": "100 mg/kg po daily + Taxol; Day 13", "procedure": "The animals were housed in polycarbonate plastic cages, 2 animals per cage, at a temperature of 18-26° C., 30-70% humidity, 12-hour light/dark cycle, with food and water available ad libityum.\nOn days 1, 3, 5, and 7, the rats received an ip (intraperitoneal) injection of Taxol® (2 mg/kg).\nOn Day 13, the animals were euthanized by carbon dioxide asphyxiation. The sciatic nerve and right hind paw were excised and placed in 10% neutral buffered formalin. The harvested tissues were blocked, embedded in paraffin, sectioned and stained with hemotoxylin and eosin. The tissue was examined using light microscopy and scored by an evaluator blind to the treatment regimen. The tissue was ranked on a scale of 0 to 3 based on the degree and amount of axonal disruption observed in the section, with 0 being a normal appearance of the axon, 1 to 2 being a mild to moderate disruption of the axons and a 3 being a complete disruption and Wallerian degeneration of the axons (Cavaletti, G, Tredici, G, Braga, M, Tazzari, S. Experimental peripheral neuropathy induced in adult rats by repeated intraperitoneal administration of Taxol®. Exper Neurol 133:64-72,1995). Data were analyzed using one-way ANOVA and Dunnett's test, with statistical significance at p<0.05."}, "[3]": {"tested_on": "spontaneous locomotor activity", "test": "Taxol Induced Peripheral Neuropathy Model (pilot), Open Field testing", "format": "in vivo, Sprague-Dawley rats", "settings": "100 mg/kg po daily + Taxol, Day 11"}, "[4]": {"settings": "110 mg/kg, i.p. 15 min prior to formalin injection, p<0.01"}}}
{"smiles": "NS(=O)(=O)NC[C@H]1COc2cc(Cl)ccc2O1", "note": "[Compound #8, (2S)-(−)-N-(6-Chloro-2,3-dihydro-benzo[1,4]dioxin-2-ylmethyl)-sulfamide]", "values": [{"measurement": "chronic phase decrease from control", "setting": "[1]; 60 mg/kg i.p., p<0.01", "result": 40, "unit": "%"}, {"measurement": "acute phase decrease from control", "setting": "[1]; 60 mg/kg i.p., p<0.05", "result": 30, "unit": "%"}, {"measurement": "acute phase decrease from control", "setting": "[1]; [4]", "result": 52, "unit": "%"}, {"measurement": "chronic phase decrease from control", "setting": "[1]; [4]", "result": 43, "unit": "%"}, {"measurement": "degeneration in the sciatic nerve (histopathology)", "setting": "[2]", "result": "positive trend to decreased degeneration in the sciatic nerve, although the differences were not statistically significant"}, {"measurement": "severity of degeneration in the right hind paw (histopathology)", "setting": "[2]", "result": "no effect on the severity of Taxol®-induced degeneration in the right hind paw"}, {"measurement": "vertical rearing (Open Field)", "setting": "[3]; p<0.05", "result": "decreased vertical rearing compared to Taxol® alone"}, {"measurement": "horizontal movement (Open Field)", "setting": "[3]; vs Taxol alone", "result": "no difference between treatment groups"}]}
